Measured values as given in patent US9969697B2, “3,4-dihydroquinazoline derivative and combination comprising the same” (UNIVERSITY-INDUSTRY COOPERATION GROUP OF KYUNG HEE …, priority 2014, dated 2018).

Assays:
lung cancer cells (A549) [1] = experiment: Cell cycle analysis by PI staining / flow cytometry, with combination index; format: cell-based, human; design: SubG1: unit not given here; conditions: A549, 48 hours
Protocol: To measure the inviability of cancer cells quantitatively, the cell cycle thereof was analyzed through flow cytometry as follows, in accordance with the method given in the document [See Kim, Y. H. et al., Expression of the murine homologue of the cell cycle control protein […] in T lymphocytes.
After adding ribonuclease (2.5 μg/ml) and propidium iodide (50 μg/ml) together with 500 μl of PBS, the cells were left for 30 minutes in the dark at room temperature, followed by analyzing cell cycle within 1 hour using FACScan flow cytometer (Becton Dickinson Co, Heidelberg, Germany).
(§1) Combination index (CI) mathematically expresses the cytotoxicity on cancer cells or growth inhibition of cancer cells through relative comparison after treating drugs alone or in a combination. The CI is the quantitative concept introduced by Paul Talalay and Ting-Chao Chou and was calculated using CalcuSyn software. The effect of combination treatment according to the values of CI was defined as follows.

[2] = test system: pancreatic cancer cells (PANC-1); experiment: as above; format: cell-based, human; conditions: PANC-1, 48 hours, Table 3
[3] = molecular target: T1, α1G T-type calcium channel (Homo sapiens, UniProt O43497); experiment: T-type calcium channel activity, whole-cell patch-clamp in HEK293 cells; format: cell-based; conditions: HEK293 cells expressing α1G T-type calcium channel; read-out: T-type calcium channel blocking effect (IC50: μM)
T1 construct: expressed in transfected cells
T1 sequence (O43497 whole entry): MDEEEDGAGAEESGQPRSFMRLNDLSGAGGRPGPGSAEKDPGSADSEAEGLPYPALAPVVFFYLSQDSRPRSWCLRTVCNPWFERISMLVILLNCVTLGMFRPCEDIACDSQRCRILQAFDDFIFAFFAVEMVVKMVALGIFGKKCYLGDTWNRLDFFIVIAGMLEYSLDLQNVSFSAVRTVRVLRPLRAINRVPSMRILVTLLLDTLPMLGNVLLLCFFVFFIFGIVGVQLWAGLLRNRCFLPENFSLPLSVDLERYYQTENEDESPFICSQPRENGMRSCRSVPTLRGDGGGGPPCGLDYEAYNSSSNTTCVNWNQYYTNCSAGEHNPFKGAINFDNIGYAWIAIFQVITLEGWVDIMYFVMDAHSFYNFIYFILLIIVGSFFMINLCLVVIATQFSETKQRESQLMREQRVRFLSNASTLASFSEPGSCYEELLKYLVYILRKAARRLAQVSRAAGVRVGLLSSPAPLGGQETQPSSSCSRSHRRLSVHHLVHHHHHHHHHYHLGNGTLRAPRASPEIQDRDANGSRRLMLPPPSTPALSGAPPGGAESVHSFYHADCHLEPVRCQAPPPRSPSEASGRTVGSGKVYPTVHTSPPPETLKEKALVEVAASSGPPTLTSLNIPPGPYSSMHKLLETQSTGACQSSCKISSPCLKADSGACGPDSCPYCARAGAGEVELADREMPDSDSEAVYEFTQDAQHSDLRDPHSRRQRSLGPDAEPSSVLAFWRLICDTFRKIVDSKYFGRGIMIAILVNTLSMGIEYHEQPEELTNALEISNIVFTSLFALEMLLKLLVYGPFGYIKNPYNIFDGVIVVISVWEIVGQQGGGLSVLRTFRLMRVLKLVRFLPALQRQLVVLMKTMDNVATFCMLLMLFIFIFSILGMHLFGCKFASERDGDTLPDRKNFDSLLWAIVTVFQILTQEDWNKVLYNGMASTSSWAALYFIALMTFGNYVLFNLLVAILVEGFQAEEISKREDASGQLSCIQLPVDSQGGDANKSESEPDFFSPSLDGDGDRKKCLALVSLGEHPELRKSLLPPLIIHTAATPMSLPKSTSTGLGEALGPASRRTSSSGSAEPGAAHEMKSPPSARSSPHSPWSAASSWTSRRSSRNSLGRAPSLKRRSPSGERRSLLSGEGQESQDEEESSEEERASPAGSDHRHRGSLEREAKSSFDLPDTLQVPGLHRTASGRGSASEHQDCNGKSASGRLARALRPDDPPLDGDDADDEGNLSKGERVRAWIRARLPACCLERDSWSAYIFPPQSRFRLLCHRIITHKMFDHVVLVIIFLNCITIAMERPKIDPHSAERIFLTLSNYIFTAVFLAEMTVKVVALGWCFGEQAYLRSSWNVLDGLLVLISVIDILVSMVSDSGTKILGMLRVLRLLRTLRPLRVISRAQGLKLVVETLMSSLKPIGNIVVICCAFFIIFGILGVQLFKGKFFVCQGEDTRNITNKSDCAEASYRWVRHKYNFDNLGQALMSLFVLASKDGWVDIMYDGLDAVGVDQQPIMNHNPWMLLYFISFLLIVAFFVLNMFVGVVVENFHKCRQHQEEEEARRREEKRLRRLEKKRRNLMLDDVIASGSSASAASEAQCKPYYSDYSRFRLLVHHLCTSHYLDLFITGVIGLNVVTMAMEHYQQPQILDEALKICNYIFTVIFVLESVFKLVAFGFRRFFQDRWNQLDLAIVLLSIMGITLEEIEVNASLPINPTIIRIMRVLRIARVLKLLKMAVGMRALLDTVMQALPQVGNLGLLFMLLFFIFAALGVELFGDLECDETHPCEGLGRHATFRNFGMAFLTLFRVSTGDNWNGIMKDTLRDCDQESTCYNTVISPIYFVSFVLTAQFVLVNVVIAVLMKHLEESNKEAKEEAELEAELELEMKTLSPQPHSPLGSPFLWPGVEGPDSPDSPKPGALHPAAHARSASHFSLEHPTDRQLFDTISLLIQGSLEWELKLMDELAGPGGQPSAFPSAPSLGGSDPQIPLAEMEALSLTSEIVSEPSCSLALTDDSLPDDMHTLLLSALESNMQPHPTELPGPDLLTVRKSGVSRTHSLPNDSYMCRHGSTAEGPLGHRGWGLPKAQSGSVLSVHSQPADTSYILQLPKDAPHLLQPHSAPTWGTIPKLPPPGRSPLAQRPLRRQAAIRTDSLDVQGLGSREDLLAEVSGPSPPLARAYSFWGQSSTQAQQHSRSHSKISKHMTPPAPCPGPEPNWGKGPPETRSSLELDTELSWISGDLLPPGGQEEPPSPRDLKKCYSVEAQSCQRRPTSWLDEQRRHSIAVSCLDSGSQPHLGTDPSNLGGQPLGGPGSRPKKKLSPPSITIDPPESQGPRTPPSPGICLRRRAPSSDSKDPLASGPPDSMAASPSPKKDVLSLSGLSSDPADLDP
Protocol: The culture medium was replaced with a fresh medium every 3 to 4 days, and the cultured cells were subjected to sub-culture every week. […] The cells used for T-type calcium channel activity assay were cultured on a cover slip coated with poly-L-lysine (0.5 mg/mL) whenever sub-cultured, and their calcium channel activity was recorded 2 to 7 days after the cultivation. Current of the T-type calcium channel at a single cell level was measured according to an electrophysiological whole-cell patch-clamp method using EPC-9 amplifier (HEKA, Germany). At this time, a cell exterior solution [NaCl 140 mM, CaCl2 2 mM, and HEPES 10 mM (pH 7.4)] and a cell interior solution [KCl 130 mM, HEPES 10 mM, EGTA 11 mM, and MgATP 5 mM (pH 7.4)] were employed. Inward current caused by the T-type calcium channel activation which occurred when the cells were converted into a whole-cell recording mode by stabbing a microglass electrode having 3-4 MΩ resistance which was filled with the cell interior solution into a single cell and depolarized at −30 mV (50 ms duration period) every 10 s with fixing membrane potential to −100 mV was measured according to a T-type calcium Channel activity protocol activated at low voltage.

[4] = test system: A549 cell line (human lung cancer); experiment: MTT cytotoxicity assay on cancer cells; format: cell-based; conditions: 48 hours after treatment
Protocol: A549 cell line (human lung cancer) and PANC-1 cell line (human pancreatic cancer) were obtained from Korean Cell Line Bank (KCLB). The cells were cultured in RPMI 1640 medium supplemented with 10% fetal bovine serum (FBS) being heated and inactivated, penicillin (100 units/ml) and streptomycin sulfate (100 units/ml) under the condition of 37° C. and 5% CO2.
In order to confirm the cytotoxicity of drugs, an MTT (3-(4,5-dimethylthiazol-2-yl)-2,5-diphenyltetrazolium bromide) assay was conducted as follows [See Armichael et al., Evaluation of a tetrazolium-based semiautomated colorimetric assay: assessment of chemisensitivity testing. Cancer Research, 47, pp. 944-946, 1987]. The MTT assay is based on the reduction of water-soluble MTT (tetrazolium salt, yellow) which can be absorbed in living cells to its water-insoluble formazan crystals (purple) by activity of oxidoreductase enzymes of mitochondria. That is, when the number of viable cells is more, the formation of formazan crystals increases and the value of absorbance becomes higher.
Each of the cultured cancer cells was inoculated in a 96-well plate (5×10^4 cells/well) and cultured in RPMI medium (100 μl) containing 5% FBS. In 48 hours after the treatment of drugs (200, 100, 50, 25, 12.5, 6.25, 3.125 μM), 20 μl of an MTT solution (5.0 mg/ml) was added to each well, followed by further incubation for 4 hours. The supernatant of the plate was collected, and formazan crystals formed by MTT in the cells were added in 200 μl of DMSO to dissolve the precipitate. The OD value was measured at 540 nm using microplate reader (Molecular Devices).

lung cancer cells (A549) [5] = experiment: Annexin V-FITC/PI double staining assay (apoptosis), with combination index; format: cell-based, human; design: unit not given here
Protocol: Cell death include the event that phosphatidylserine translocated to the surface of cell membrane is bound to Annexin V-FITC to express fluorochromes. Cells were treated with drugs, harvested, washed with ice-cold PBS twice, and supplied with 100 μl of Annexin V binding buffer ([…] 4-(2-hydroxyethyl)piperazine-1-ethanesulfonic acid (HEPES)/NaOH, 140 mM NaCl, 2.5 mM CaCl2, pH 7.4). Thereto, 5 μl of FITC-conjugated Annexin V and PI (50 μg/ml) were added. The mixture was left for 30 minutes in the dark at room temperature, followed by analysis within 1 hour using FACScan flow cytometer (Becton Dickinson Co, Heidelberg, Germany).
as §1

Work on N.N.[Cl][Pt][Cl] [Cisplatin] yielded a G0/G1 (lung cancer cells (A549) [1]; 20 μM, Table 2) of 9.0, a G2/M (lung cancer cells (A549) [1]; 20 μM, Table 2) of 67.5 and an S (lung cancer cells (A549) [1]; 20 μM, Table 2) of 13.1. For the same molecule, the SubG1 (lung cancer cells (A549) [1]; 20 μM, Table 2) was 10.5, the G0/G1 (lung cancer cells (A549) [1]; 30 μM, Table 2) was 14.0 and the G2/M (lung cancer cells (A549) [1]; 30 μM, Table 2) was 52.9. The S (lung cancer cells (A549) [1]; 30 μM, Table 2) was 15.8, the SubG1 (lung cancer cells (A549) [1]; 30 μM, Table 2) was 17.0 and the G0/G1 ([2]; 30 μM) was 42. It also gave a G2/M ([2]; 30 μM) of 29.4, an S ([2]; 30 μM) of 9.4 and a SubG1 ([2]; 30 μM) of 9.3.
CN(C)C(=O)NCCCN(C)C1=Nc2ccccc2C(CC(=O)NCc2ccccc2)N1c1ccc(C2CCCCC2)cc1 (stereo not shown) [Compound I-1, 4-(N-benzylacetamido)-3-(4-cyclohexylphenyl)-2-[N—(N′,N′-dimethylureidopropyl)-N-methyl]amino-3,4-dihydroquinazoline] gave an IC50 [3] of 0.39 ± 0.11 µM and an IC50 [4] of 12.2 µM.
In the case of CN(C)C(=O)NCCCN(C)C1=Nc2ccccc2C(CC(=O)NCc2ccc(F)cc2)N1c1ccc(C2CCCCC2)cc1 (stereo not shown) [Compound I-2, 4-[N-(4-fluorobenzyl)acetamido]-3-(4-cyclohexylphenyl)-2-[N—(N′,N′-dimethylureidopropyl)-N-methyl]amino-3,4-dihydroquinazoline], the IC50 [3] is reported as 0.89 ± 0.06 µM, the IC50 [4] is reported as 7.3 µM and the G0/G1 (lung cancer cells (A549) [1]; 10 μM, Table 2) is reported as 79.1. For the same molecule, the G2/M (lung cancer cells (A549) [1]; 10 μM, Table 2) was 10.9, the S (lung cancer cells (A549) [1]; 10 μM, Table 2) was 2.4 and the SubG1 (lung cancer cells (A549) [1]; 10 μM, Table 2) was 7.6. For the same molecule, the G0/G1 (lung cancer cells (A549) [1]; 10 μM, Table 4) was 77.4, the G2/M (lung cancer cells (A549) [1]; 10 μM, Table 4) was 13.3 and the S (lung cancer cells (A549) [1]; 10 μM, Table 4) was 5.4. For the same molecule, the SubG1 (lung cancer cells (A549) [1]; 10 μM, Table 4) was 4.0, the G0/G1 (lung cancer cells (A549) [1]; 10 μM, Table 5) was 76.8 and the G2/M (lung cancer cells (A549) [1]; 10 μM, Table 5) was 12.1. It also gave an S (lung cancer cells (A549) [1]; 10 μM, Table 5) of 7.6, a SubG1 (lung cancer cells (A549) [1]; 10 μM, Table 5) of 3.7 and a G0/G1 ([2]; 2.5 μM) of 44.7. It also gave a G2/M ([2]; 2.5 μM) of 35, an S ([2]; 2.5 μM) of 7.2 and a SubG1 ([2]; 2.5 μM) of 2.5. For the same molecule, the “AV+/PI− (early apoptosis)” value (lung cancer cells (A549) [5]; A549, 2.5 μM) was 2.4, the “Total AV+ (sum of early and late apoptosis)” value (“Total AV+” for short) (lung cancer cells (A549) [5]; A549, 2.5 μM) was 6.08 and the “AV+/PI− (early apoptosis)” value (lung cancer cells (A549) [5]; A549, 5 μM) was 1.88. The “Total AV+” value (lung cancer cells (A549) [5]; A549, 5 μM) was 4.78, the “AV+/PI− (early apoptosis)” value (lung cancer cells (A549) [5]; A549, 10 μM) was 8.8 and the “Total AV+” value (lung cancer cells (A549) [5]; A549, 10 μM) was 13.14.
COc1ccc(CN(C(C)=O)C2c3ccccc3N=C(N(C)CCCNC(=O)N(C)C)N2c2ccc(C3CCCCC3)cc2)cc1 (stereo not shown) [Compound I-3, 4-[N-(4-methoxybenzyl)acetamido)-3-(4-cyclohexylphenyl)-2-[N—(N′,N′-dimethylureidopropyl)-N-methyl]amino-3,4-dihydroquinazoline] was tested, and the G0/G1 (lung cancer cells (A549) [1]; 10 μM, Table 6) was 76.8, the G2/M (lung cancer cells (A549) [1]; 10 μM, Table 6) was 12.1 and the S (lung cancer cells (A549) [1]; 10 μM, Table 6) was 7.6. For the same molecule, the SubG1 (lung cancer cells (A549) [1]; 10 μM, Table 6) was 3.7.
In the case of COc1cccc2c1C(=O)c1c(O)c3c(c(O)c1C2=O)C[C@@](O)(C(=O)CO)C[C@@H]3O[C@H]1C[C@H](N)[C@H](O)[C@H](C)O1 [Doxorubicin], the G0/G1 (lung cancer cells (A549) [1]; 10 μM, Table 5) is reported as 36.7, the G2/M (lung cancer cells (A549) [1]; 10 μM, Table 5) is reported as 18.3 and the S (lung cancer cells (A549) [1]; 10 μM, Table 5) is reported as 11.9. It also gave a SubG1 (lung cancer cells (A549) [1]; 10 μM, Table 5) of 33.5, a G0/G1 (lung cancer cells (A549) [1]; 10 μM, Table 6) of 36.7 and a G2/M (lung cancer cells (A549) [1]; 10 μM, Table 6) of 18.3. It also gave an S (lung cancer cells (A549) [1]; 10 μM, Table 6) of 11.9 and a SubG1 (lung cancer cells (A549) [1]; 10 μM, Table 6) of 33.5.
COc1cc([C@@H]2c3cc4c(cc3[C@@H](O[C@@H]3O[C@@H]5CO[C@@H](C)O[C@H]5[C@H](O)[C@H]3O)[C@H]3COC(=O)[C@H]23)OCO4)cc(OC)c1O [Etoposide] showed a G0/G1 (lung cancer cells (A549) [1]; 50 μM, Table 4) of 36.0, a G2/M (lung cancer cells (A549) [1]; 50 μM, Table 4) of 18.9 and an S (lung cancer cells (A549) [1]; 50 μM, Table 4) of 12.3. The SubG1 (lung cancer cells (A549) [1]; 50 μM, Table 4) was 33.0, the “AV+/PI− (early apoptosis)” value (lung cancer cells (A549) [5]; A549, 50 μM) was 19.1 and the “Total AV+” value (lung cancer cells (A549) [5]; A549, 50 μM) was 31.68.
In the case of COc1cc2ncnc(Nc3ccc(F)c(Cl)c3)c2cc1OCCCN1CCOCC1 [Gefitinib], the G0/G1 (lung cancer cells (A549) [1]; 40 μM, Table 5) is reported as 72.7, the G2/M (lung cancer cells (A549) [1]; 40 μM, Table 5) is reported as 11.8 and the S (lung cancer cells (A549) [1]; 40 μM, Table 5) is reported as 4. It also gave a SubG1 (lung cancer cells (A549) [1]; 40 μM, Table 5) of 11.6, a G0/G1 (lung cancer cells (A549) [1]; 40 μM, Table 6) of 72.7 and a G2/M (lung cancer cells (A549) [1]; 40 μM, Table 6) of 11.8. For the same molecule, the S (lung cancer cells (A549) [1]; 40 μM, Table 6) was 4 and the SubG1 (lung cancer cells (A549) [1]; 40 μM, Table 6) was 11.6.
Cc1ccc(NC(=O)c2ccc(CN3CCN(C)CC3)cc2)cc1Nc1nccc(-c2cccnc2)n1 [Imatinib] gave a G0/G1 (lung cancer cells (A549) [1]; 100 μM, Table 5) of 72.4, a G2/M (lung cancer cells (A549) [1]; 100 μM, Table 5) of 14.4 and a SubG1 (lung cancer cells (A549) [1]; 100 μM, Table 5) of 2.9. It also gave a G0/G1 (lung cancer cells (A549) [1]; 100 μM, Table 6) of 72.4, a G2/M (lung cancer cells (A549) [1]; 100 μM, Table 6) of 14.4 and a SubG1 (lung cancer cells (A549) [1]; 100 μM, Table 6) of 2.9.
Molecule COCC(=O)O[C@]1(CCN(C)CCCc2nc3ccccc3[nH]2)CCc2cc(F)ccc2[C@@H]1C(C)C [Mibefradil] has an IC50 [4] of 24.9 µM.
C#Cc1cccc(Nc2ncnc3cc(OCCOC)c(OCCOC)cc23)c1 [erlotinib, Erlotinib] showed a G0/G1 (lung cancer cells (A549) [1]; 150 μM, Table 5) of 70.6, a G2/M (lung cancer cells (A549) [1]; 150 μM, Table 5) of 12.9 and an S (lung cancer cells (A549) [1]; 150 μM, Table 5) of 7.2. It also gave a SubG1 (lung cancer cells (A549) [1]; 150 μM, Table 5) of 9.6, a G0/G1 (lung cancer cells (A549) [1]; 300 μM, Table 6) of 27.7 and a G2/M (lung cancer cells (A549) [1]; 300 μM, Table 6) of 1.2. It also gave an S (lung cancer cells (A549) [1]; 300 μM, Table 6) of 1 and a SubG1 (lung cancer cells (A549) [1]; 300 μM, Table 6) of 70.3.
